Assay results reported in ChEMBL document CHEMBL3853301, “The therapeutic voyage of pyrazole and its analogs: A review” (Eur J Med Chem, 2016).
In brackets after ≈: the same amount, converted by molar mass.

Columns and labels:
Staphylococcus aureus [1] = assay: Antibacterial activity against Staphylococcus aureus NCTC 7447 by serial dilution method; format: functional
Staphylococcus aureus [2] = assay: Antibacterial activity against Staphylococcus aureus NCTC 7447 by agar diffusion method; format: functional
[3] = Antiproliferative activity against human NCI-H226 cells after 72 hrs by MTT assay; format: functional; conditions: NCI-H226, 72 h
[4] = Antiproliferative activity against human NPC-TW01 cells after 72 hrs by MTT assay; format: functional; conditions: NPC-TW01, 72 h
Escherichia coli [5] = assay: Antibacterial activity against Escherichia coli NCIM 2685 by broth microdilution method; format: functional
[6] = target: T1, Prostaglandin G/H synthase 1 (Ovis aries, UniProt P05979); assay: Inhibition of recombinant ovine COX1 assessed as reduction in PGF2alpha production from PGH2 by enzyme immunoassay
T1 sequence (P05979 whole entry): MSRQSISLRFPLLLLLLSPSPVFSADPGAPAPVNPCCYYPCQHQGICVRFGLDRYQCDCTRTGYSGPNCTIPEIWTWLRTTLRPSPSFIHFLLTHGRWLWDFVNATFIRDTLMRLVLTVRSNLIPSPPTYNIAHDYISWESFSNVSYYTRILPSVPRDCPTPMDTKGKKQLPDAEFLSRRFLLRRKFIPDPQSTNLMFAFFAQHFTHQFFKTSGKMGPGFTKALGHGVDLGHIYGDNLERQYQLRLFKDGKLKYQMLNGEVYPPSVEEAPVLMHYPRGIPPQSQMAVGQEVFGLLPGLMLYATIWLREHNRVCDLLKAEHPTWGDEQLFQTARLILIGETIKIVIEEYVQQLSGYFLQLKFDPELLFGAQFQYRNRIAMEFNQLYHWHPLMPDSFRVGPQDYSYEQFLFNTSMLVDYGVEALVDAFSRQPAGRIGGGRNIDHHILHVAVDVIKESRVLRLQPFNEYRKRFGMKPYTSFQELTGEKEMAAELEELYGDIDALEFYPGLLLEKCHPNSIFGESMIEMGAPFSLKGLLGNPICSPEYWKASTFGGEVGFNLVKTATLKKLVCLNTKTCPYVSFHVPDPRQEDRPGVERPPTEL

[7] = target: T2, Prostaglandin G/H synthase 2 (Homo sapiens, UniProt P35354); assay: Inhibition of recombinant human COX2 assessed as reduction in PGF2alpha production from PGH2 by enzyme immunoassay
T2 sequence (P35354 whole entry): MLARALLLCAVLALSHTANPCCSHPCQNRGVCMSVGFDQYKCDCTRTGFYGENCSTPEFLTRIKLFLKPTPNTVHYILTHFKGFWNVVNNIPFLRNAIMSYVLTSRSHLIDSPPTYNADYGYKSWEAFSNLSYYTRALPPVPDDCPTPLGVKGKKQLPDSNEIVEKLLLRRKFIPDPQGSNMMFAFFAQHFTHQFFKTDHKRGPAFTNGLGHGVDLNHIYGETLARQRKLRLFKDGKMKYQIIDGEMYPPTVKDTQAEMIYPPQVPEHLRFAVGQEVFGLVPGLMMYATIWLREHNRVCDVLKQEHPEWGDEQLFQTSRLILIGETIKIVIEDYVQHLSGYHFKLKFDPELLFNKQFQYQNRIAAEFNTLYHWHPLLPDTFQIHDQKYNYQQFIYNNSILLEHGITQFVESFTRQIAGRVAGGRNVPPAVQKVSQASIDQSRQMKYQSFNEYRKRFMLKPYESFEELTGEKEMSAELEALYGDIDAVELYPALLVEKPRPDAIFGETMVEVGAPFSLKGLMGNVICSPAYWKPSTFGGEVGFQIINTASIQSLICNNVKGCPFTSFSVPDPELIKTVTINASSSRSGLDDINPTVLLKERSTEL

[8] = Selectivity index, ratio of IC50 for recombinant ovine COX1 to IC50 for recombinant human COX2
[9] = Antifungal activity against Penicillium notatum NCIM 745 by broth microdilution method; format: functional; conditions: Penicillium chrysogenum
Bacillus subtilis [10] = assay: Antibacterial activity against Bacillus subtilis NCIM 2711 by broth microdilution method; format: functional
Staphylococcus aureus [11] = assay: Antibacterial activity against Staphylococcus aureus; format: functional
Bacillus cereus = assay: Antibacterial activity against Bacillus cereus; format: functional
Rattus norvegicus = assay: Antihyperglycemic activity in STZ/nicotinamide-induced type2 diabetic Wistar rat model assessed as blood glucose level at 100 mg/kg, po measured for 14 days post dose; format: functional
Aspergillus fumigatus = assay: Antifungal activity against Aspergillus fumigatus NCIM 535 by broth microdilution method; format: functional
Escherichia coli [12] = assay: Antibacterial activity against Escherichia coli MTCC 443 after 24 hrs by broth dilution method; format: functional; conditions: MTCC 443, 24 h
[13] = test system: Mycobacterium tuberculosis; assay: Antimycobacterial activity against Mycobacterium tuberculosis H37Rv; format: functional
[14] = test system: Bovine viral diarrhea virus 1; assay: Antiviral activity against Bovine viral diarrhea virus 1 infected in MDBK cells; format: functional, cell-based; conditions: Bovine viral diarrhea virus isolates and strains
[15] = Antidiabetic activity in albino mouse assessed as reduction in alloxan-induced plasma glucose level at 0.2 mmol/kg, po administered 3 days post alloxan challenge measured 1 to 3 hrs post dose by copper reduction based colorimetric assay relative to control; format: functional, organism-based
Staphylococcus aureus [16] = assay: Antibacterial activity against Staphylococcus aureus after 16 hrs by serial dilution method; format: functional
Bacillus subtilis [17] = assay: Antibacterial activity against Bacillus subtilis after 16 hrs by serial dilution method; format: functional
Escherichia coli [18] = assay: Antibacterial activity against Escherichia coli after 16 hrs by serial dilution method; format: functional
Pseudomonas aeruginosa = assay: Antibacterial activity against Pseudomonas aeruginosa after 16 hrs by serial dilution method; format: functional
[19] = test system: Bovine viral diarrhea virus 1; assay: Potency index, ratio of ribavirin EC50 to compound EC50 for Bovine viral diarrhea virus 1 infected in MDBK cells; format: functional
Bacillus subtilis [20] = assay: Antibacterial activity against Bacillus subtilis by broth dilution method; format: functional

Compound: CC(=O)Nc1ccc(/N=N/c2c(N)nn3c(-c4ccccc4Cl)c(C#N)c(=O)[nH]c23)cc1
- MIC (Staphylococcus aureus [1]): 110 µg/mL (≈ 246 µM)
- inhibition zone (IZ) (Staphylococcus aureus [2]): 2.5 cm

Compound: Nc1ccc(NC(=O)c2cc(-c3ccc(Cl)cc3)nn2-c2ccccc2)cc1
- GI50 [3]: 18 µM
- GI50 [4]: 30 µM

Compound: O=C1/C(=C\c2cn(-c3ccccc3)nc2-c2ccc(O)cc2)SC(=S)N1c1ccc(Cl)cc1
- IC50 (Escherichia coli [5]): 62.5 µg/mL (≈ 128 µM)

Compound: CC(=O)NC1=NN(C(C)=O)C(c2cn(-c3ccccc3)nc2-c2ccc(O)cc2)S1 (centres undefined)
- IC50 [6]: 73 µM
- IC50 [7]: 14 µM
- Ratio IC50 [8]: 5.21

Compound: O=C(O)n1nc(-c2ccccc2)cc1-c1cc2ccccc2nc1Cl
- MIC [9]: 57 µg/mL (≈ 163 µM)
- MIC (Bacillus subtilis [10]): 54 µg/mL (≈ 154 µM)
- MIC (Escherichia coli [5]): 43 µg/mL (≈ 123 µM)

Compound: Cc1ccc(-c2cc(C(=O)Nc3ccc(N)cc3)n(-c3ccc4ccccc4n3)n2)cc1
- GI50 [3]: 18 µM
- GI50 [4]: 30 µM

Compound: O=C1C(c2cc(-c3ccc(Br)cc3)nn2-c2ccccc2)C(O)N(c2ccccc2)C(=S)N1c1ccccc1 (centres undefined)
- MIC (Staphylococcus aureus [11]): 31.2 µg/mL (≈ 52.5 µM)
- MIC (Bacillus cereus): 31.2 µg/mL (≈ 52.5 µM)

Compound: COc1cc2c(cc1OC)C(=O)C(Cc1cn(-c3ccc(C)cc3)nc1-c1cc3ccccc3oc1=O)C2 (centres undefined)
- Activity (Rattus norvegicus): 115 mg/dL

Compound: Nc1ccc2nc(Cl)c(-c3cc(-c4ccccc4)nn3C(=O)O)cc2c1
- MIC (Aspergillus fumigatus): 48 µg/mL (≈ 132 µM)
- MIC [9]: 46 µg/mL (≈ 126 µM)
- MIC (Bacillus subtilis [10]): 44 µg/mL (≈ 121 µM)

Compound: O=C1CSC(N2N=C(c3ccccc3[N+](=O)[O-])CC2c2cn(-c3ccccc3)nc2-c2ccc(F)cc2)=N1 (centres undefined)
- MIC (Escherichia coli [12]): 12.5 µg/mL (≈ 23.7 µM)

Compound: COc1ccc(-n2cc(CC3Cc4cc(OC)c(OC)cc4C3=O)c(-c3cc4ccccc4oc3=O)n2)cc1 (centres undefined)
- Activity (Rattus norvegicus): 138 mg/dL

Compound: O=C1c2ccccc2NC(c2cn(-c3ccccc3)nc2-c2ccccc2)N1c1ccc(Cl)cc1 (centres undefined)
- MIC [13]: 12.5 µg/mL (≈ 26.2 µM)

Compound: NC(=O)c1ncn([C@@H]2O[C@H](CO)[C@@H](O)[C@H]2O)n1 [RIBAVIRIN]
- EC50 [14]: 1300 nM

Compound: Cc1c(Br)c(C(F)(F)F)nn1-c1ccc(S(=O)(=O)NC(=O)Nc2ccccc2)cc1
- inhibition [15]: 20%

Compound: Sc1nncn1/N=C/c1cn[nH]c1-c1ccccc1
- MIC (Staphylococcus aureus [16]): 1.61 µg/mL (≈ 5.96 µM)
- MIC (Bacillus subtilis [17]): 1.61 µg/mL (≈ 5.96 µM)
- MIC (Escherichia coli [18]): 1.61 µg/mL (≈ 5.96 µM)
- MIC (Pseudomonas aeruginosa): 1.61 µg/mL (≈ 5.96 µM)

Compound: Cc1ccc(-n2nc(C)c3c2CN(c2ccccc2)C3=O)cc1
- EC50 [14]: 120 nM
- Ratio EC50 [19]: 10

Compound: COc1ccc(-n2c(-c3cn(-c4ccccc4)nc3-c3ccccc3)nc3ccccc3c2=O)cc1
- MIC (Bacillus subtilis [20]): 62.5 µg/mL (≈ 133 µM)

Compound: CC(=O)NC1=NN(C(C)=O)C(c2cn(-c3ccccc3)nc2-c2ccc([N+](=O)[O-])cc2)S1 (centres undefined)
- IC50 [6]: 70 µM
- IC50 [7]: 20 µM
- Ratio IC50 [8]: 3.5
